# In US20100034772A1, “COMPOSITIONS AND METHODS FOR IMMUNOTHERAPY” (priority 2006, published 2010):
# “Also recorded” adds a separate entry of the source.
# What was measured:
# [1] = system: Ge-con and Ge-Hsp70 melanoma cells; experiment: Flow cytometry of cell surface MICA/B, NKG2D ligands and HSP70 on Ge melanoma cells after histone deacetylase inhibitor; format: cell-based, human; conditions: FIG. 9A; for HSP70 cell surface expression on Ge cells after histone deacetylase inhibitor treatment: SAHA 10 μM, 20 h, mAb RPN 1197; for MICA/B cell surface expression on Ge-con and Ge-Hsp70 cells: histone deacetylase inhibitor treatment (SAHA 10 μM, 20 h)
# Method: (§1) The human melanoma cell line Ge, the Ge-Hsp70 and Ge-con sublines derived therefrom (clones Ge-Hsp70-A, Ge-Hsp70-C, Ge-TCR-C, and Ge-GFP-B) (15), mouse fibroblast L cells, and transfected L cells were maintained in NaHCO3-buffered DMEM supplemented with 10% FCS (Biochrom, Berlin, Germany), 2 mM L-glutamine, 1 mM sodium pyruvate, 50 μM 2-mercaptoethanol and antibiotics (100 U/ml penicillin, 100 μg/ml streptomycin) (Sigma) in Petri dishes for tissue culture (Sarstedt, Nümbrecht, Germany) at 37° C. in a 10% CO2 atmosphere. Human erythroleukemia K562 and mouse lymphoma YAC-1 cells were maintained under the same conditions in Petri dishes for suspension cells (Sarstedt). […] L cells were co-transfected by electroporation with 30 μg of the cosmid A158 (25) containing the MIC3 gene of the rhesus macaque (Macaca mulatta) which is orthologous to human MICA, and with 1 μg of the dsRED vector (Clontech, Mountain View, USA), which confers resistance to geneticin (Invitrogen, Karlsruhe, Germany). After selection with geniticin (1 mg/ml) stable clones were established by limiting dilution, tested for presence of the cosmid by PCR using specific primers (5′-GCT TGC ATT CCC TCC AGG A-3′ (SEQ ID NO: 1) and 5′-TGGACCCTCTGCAGCTGATGT-3′ (SEQ ID NO: 2), length of specific PCR product 1396 bp). MICA mRNA expression was analyzed by Northern blot and cell surface expression by flow cytometry. Four independent clones were tested as target cells for human and rhesus lymphokine-activated killer (LAK) cells with similar results, confirming that MICA expression confers susceptibility to LAK cells. Clone K43 (L-MICA) was selected for the further studies.
# Flow cytometry was done on a FACScan flow cytometer (Becton Dickinson, Heidelberg, Germany) using CellQuest software. Expression of intracellular HSP70, T cell receptor (TCR) β, and green fluorescent protein (GFP) in Ge-Hsp70 and Ge-con clones, respectively, was controlled regularly by flow cytometry as described before (15). Cell surface expression of HSP70 was examined on propidium iodide negative cells by a monoclonal antibody (mAb) (RPN 1197, mouse IgG1, multimmune, Regensburg, Germany) that has been reported to detect HSP70 on the plasma membrane (28). MICA/B cell surface expression was determined with the mAb BAMO1 reacting with human MICA and MICB (mouse IgG1, Immatics, Tübingen, Germany). […] Intracellular granzyme B expression was analyzed with the mAb B18.1 (mouse IgG1, Alexis Biochemicals, Grünberg, Germany) after permeabilization of the cells with 0.25% saponin as described before for HSP70 (15). […] The percentage of NK cells in the spleens of SCID mice was determined using the pan-NK cell marker DX5 (rat IgM, PE-conjugated, Caltag Laboratories, Hamburg, Germany). […]
# [2] = system: Ge-con and Ge-Hsp70 melanoma cells; experiment: 51Chromium release assay: lysis of SAHA-treated Ge-con and Ge-Hsp70 cells by LAK cells; format: cell-based, human; conditions: target cells 10 μM SAHA 20 h; LAK: PBMC 4 days IL-2 100 U/ml; n=4; p=0.0030, three-way ANOVA; FIG. 9B
# Method: (§2) The human melanoma cell line Ge, the Ge-Hsp70 and Ge-con sublines derived therefrom (clones Ge-Hsp70-A, Ge-Hsp70-C, Ge-TCR-C, and Ge-GFP-B) (15), mouse fibroblast L cells, and transfected L cells were maintained in NaHCO3-buffered DMEM supplemented with 10% FCS (Biochrom, Berlin, Germany), 2 mM L-glutamine, 1 mM sodium pyruvate, 50 μM 2-mercaptoethanol and antibiotics (100 U/ml penicillin, 100 μg/ml streptomycin) (Sigma) in Petri dishes for tissue culture (Sarstedt, Nümbrecht, Germany) at 37° C. in a 10% CO2 atmosphere. Human erythroleukemia K562 and mouse lymphoma YAC-1 cells were maintained under the same conditions in Petri dishes for suspension cells (Sarstedt). […] MICA mRNA expression was analyzed by Northern blot and cell surface expression by flow cytometry. […]
# (§3) Target cells were labeled by incubating 1×10^6 cells in 200 μl HEPES-buffered DMEM containing 100 μl FCS and 50 μCi Na2^51CrO4 (ICN Biomedicals, Eschwege, Germany) for 1 h at 37° C. and washed three times with HEPES-buffered DMEM. […] Spontaneous release was determined by incubation of target cells in the absence of effector cells. […]
# [3] = system: NK cells / Ge-con target cells; experiment: 51Chromium release assay: lysis of Ge-con melanoma target cells by isolated NK cells; format: cell-based, human
# Text: Human effector cells were obtained from the peripheral blood of healthy voluntary laboratory co-workers by density gradient centrifugation on Biocoll separating solution (Biochrom). NK cells were isolated from peripheral blood mononuclear cells (PBMC) by magnetic cell sorting (MACS) using a negative selection kit (NK cell isolation Kit II, 130-091-152; Miltenyi Biotec, Bergisch-Gladbach, Germany). The kit contains a cocktail of antibodies against CD3, CD4, CD14, CD15, CD19, CD36, CD123, and CD235a. […] NK cells enriched by MACS were cultured in 24-well plates for tissue culture (Sarstedt) at a density of 2×10^6 cells/ml. To some cultures 2 μg/ml recombinant HSP70, recombinant HSC70, or the HSP70-derived peptide TKD (Bachem, Bubendorf, Switzerland) were added.
# Target cells were labeled by incubating 1×10^6 cells in 200 μl HEPES-buffered DMEM containing 100 μl FCS and 50 μCi Na2^51CrO4 (ICN Biomedicals, Eschwege, Germany) for 1 h at 37° C. and washed three times with HEPES-buffered DMEM. […] Spontaneous release was determined by incubation of target cells in the absence of effector cells. The micro titer plates were centrifuged for 5 min at 40×g and incubated at 37° C. for 4 h before being centrifuged again and supernatant and sediment were separately taken to determine radioactivity in each well using a Wallac MicroBeta Trilux counter (PerkinElmer Life Sciences, Köln, Germany).
# PBMC = experiment: 51Chromium release assay: lysis of L-MICA / L / K562 target cells by human PBMC or LAK cells stimulated in vitro; format: cell-based; conditions: for lysis of L-MICA cells by IL-2 treated PBMC, additional stimulatory effect of recombinant protein: PBMC cultured 7 days with IL-2 (100 U/ml) plus 2 μg/ml protein, compared with IL-2 only, FIG. 7A
# Method: as §1
# (§4) Splenocytes from SCID mice were obtained using a Tenbroeck homogeniser and erythrocytes were removed by incubation for 5 min in lysis buffer (155 mM NH4Cl, 10 mM KHCO3, 0.1 mM EDTA, pH 7.4-7.8). Afterwards the cells were used either directly as cytotoxic effector cells or cultured for 24 h in DMEM with 10% FCS and 20% supematant from concanavalin A stimulated lymphocytes before being used in ^51Chromium release assays. Human effector cells were obtained from the peripheral blood of healthy voluntary laboratory co-workers by density gradient centrifugation on Biocoll separating solution (Biochrom). NK cells were isolated from peripheral blood mononuclear cells (PBMC) by magnetic cell sorting (MACS) using a negative selection kit (NK cell isolation Kit II, 130-091-152; Miltenyi Biotec, Bergisch-Gladbach, Germany). […]
# as §3
# NK cells [4] = experiment: 51Chromium release assay: lysis of L-MICA target cells by MACS-isolated NK cells or NK cell depleted PBMC; format: cell-based, human
# Method: as §2, §3
# NK cells [5] = experiment: Flow cytometry of NK cell markers and intracellular granzyme B after 5 d culture; format: cell-based, human; conditions: IL-2 100 U/ml, TKD 2 μg/ml
# Method: as §4, with “Germany). The kit contains a cocktail of antibodies against CD3, CD4, CD14, CD15, CD19, CD36, CD123, and CD235a. To obtain LAK cells the PBMC were cultured for 4 to 7 days in 5-ml Petri dishes for tissue culture (Sarstedt) at a density of 5 to 10×10^6 cells/ml in DMEM supplemented with 100 U/ml IL-2 (Proleukin, Chiron, Amsterdam, Netherlands). NK cells enriched by MACS were cultured in 24-well plates for tissue culture (Sarstedt) at a density of 2×10^6 cells/ml. To some cultures 2 μg/ml recombinant HSP70, recombinant HSC70, or the HSP70-derived peptide TKD (Bachem, Bubendorf, Switzerland) were added.” for “Germany).”
# Flow cytometry was done on a FACScan flow cytometer (Becton Dickinson, Heidelberg, Germany) using CellQuest software. […] MICA/B cell surface expression was determined with the mAb BAMO1 reacting with human MICA and MICB (mouse IgG1, Immatics, Tübingen, Germany). […] Intracellular granzyme B expression was analyzed with the mAb B18.1 (mouse IgG1, Alexis Biochemicals, Grünberg, Germany) after permeabilization of the cells with 0.25% saponin as described before for HSP70 (15). […] The percentage of NK cells in the spleens of SCID mice was determined using the pan-NK cell marker DX5 (rat IgM, PE-conjugated, Caltag Laboratories, Hamburg, Germany). […]
# NK cells [6] = conditions: shown before (27); cited from earlier work
compound,measurement,setting,value
"O=C(CCCCCCC(=O)Nc1ccccc1)NO [SAHA, suberoylanilide hydroxyamic acid]",HSP70 cell surface expression on Ge cells after histone deacetylase inhibitor treatment,[1],not found
same,MICA/B cell surface expression on Ge-con and Ge-Hsp70 cells,[1],induced
same,susceptibility of treated Ge-con and Ge-Hsp70 cells to lysis by LAK cells versus untreated cells,[2],significantly more susceptible to lysis by LAK cells than untreated cells; also recorded: lysed signifcantly better than untreated cells
same,susceptibility of Ge target cells to NK cells after SAHA treatment,"[3]; target cells 10 μM SAHA 20 h, p<0.0001, three-way ANOVA, effector:target 2.5:1 and 1.25:1",augmented their susceptibility to NK cells
CC(/C=C/C(=O)NO)=C\[C@@H](C)C(=O)c1ccc(N(C)C)cc1 [trichostatin A],HSP70 cell surface expression on Ge cells after histone deacetylase inhibitor treatment,[1],not found
same,MICA/B cell surface expression on Ge-con and Ge-Hsp70 cells,[1],induced
"HSC70: His-tagged recombinant constitutively expressed HSC70 from the rat Hsc70 gene, produced in E. coli","lysis of L-MICA cells by IL-2 treated PBMC, additional stimulatory effect of recombinant protein",PBMC,but not HSC70 was able to further activate PBMC to kill MICA expressing target cells
"HSP70: His-tagged recombinant stress-inducible HSP70 protein derived from the rat Hsp70-1 gene, produced in E. coli",capacity of LAK cells to kill L-MICA cells,"PBMC; 7 days IL-2 (100 U/ml) plus HSP70 (2 μg/ml), tested in parallel with LPS (10 ng/ml), 6 experiments, p=0.0374, FIG. 7B",significantly increased
same,"lysis of L-MICA cells by IL-2 treated PBMC, additional stimulatory effect of recombinant protein",PBMC,further increased lysis of the L-MICA cells
TKDNNLLGRFELSG,lysis of L-MICA cells by PBMC stimulated with IL-2 and TKD versus IL-2 only,"PBMC; 7 days, IL-2 100 U/ml, TKD 2 μg/ml, p=0.0012, FIG. 7C",lysed L-MICA cells significantly better
same,killing of L-MICA cells by stimulated NK cell depleted PBMC,"NK cells [4]; NK cell depleted PBMC, 5 days IL-2 (100 U/ml) or IL-2 plus TKD (2 μg/ml), effector:target ratios up to 200:1, FIG. 8B",did not result in a cell population that was able to kill L-MICA cells
same,activity of the NK cells against L-MICA cells,"NK cells [4]; NK cell enriched fraction, 5 days IL-2 (100 U/ml) plus TKD (2 μg/ml) versus IL-2, 7 experiments, p<0.0001, FIG. 8C",significantly improve
same,capability of NK cells to lyse Ge-con target cells after stimulation,"[3]; NK cells 5 days IL-2 (100 U/ml) plus TKD (2 μg/ml) versus IL-2, TKD p=0.0055, three-way ANOVA, effector:target 2.5:1 and 1.25:1",increased their capability to lyse target cells
same,killing of Ge-con target cells: combination of TKD treatment of NK cells and SAHA treatment of target cells,"[3]; TKD 2 μg/ml plus IL-2 5 days, SAHA 10 μM 20 h, interaction p=0.0003, especially at lower effector:target ratios, FIG. 10B",acted synergistically
same,"mean fluorescence intensity of NKG2D and CD94, IL-2 and TKD versus IL-2 alone",NK cells [5],no significant difference was detectable
same,"intracellular granzyme B expression, IL-2 plus TKD versus IL-2 alone","NK cells [5]; 5 experiments, FIG. 10D",tendency towards increased expression
same,"percentage of CD56 positive NK cells, IL-2 plus TKD versus IL-2",NK cells [5]; FIG. 10C,no difference was observed
same,ability to stimulate NK cells to lyse HSP70 cell surface positive target cells,NK cells [6],equivalent to the full length HSP70
